ChEMBL document CHEMBL6074711, “Design, Synthesis, and Activity Evaluation of C-23-Modified 5-O-Mycaminosyltylonolide Derivatives” (ACS Med Chem Lett, 2024)
In brackets after ≈: the same amount, converted by molar mass.

Tests used:
Format in all cases: functional
Conditions in all cases: time 16-20 hrs
Staphylococcus aureus = experiment: Antibacterial activity against Staphylococcus aureus ATCC25923 incubated for 16 to 20 hrs by broth microdilution method
Escherichia coli = experiment: Antibacterial activity against Escherichia coli ATCC25922 incubated for 16 to 20 hrs by broth microdilution method
Enterococcus faecalis = experiment: Antibacterial activity against Enterococcus faecalis ATCC29212 incubated for 16 to 20 hrs by broth microdilution method
[1] = system: Stenotrophomonas maltophilia; experiment: Antibacterial activity against Stenotrophomonas maltophilia ATCC17808 incubated for 16 to 20 hrs by broth microdilution method

Row | SMILES | MIC (Staphylococcus aureus) [µg/mL] | MIC (Escherichia coli) [µg/mL] | MIC (Enterococcus faecalis) [µg/mL] | MIC [1] [µg/mL]
1 | CC[C@H]1OC(=O)C[C@@H](O)[C@H](C)[C@@H](O[C@@H]2O[C@H](C)[C@@H](O)[C@H](N(C)C)[C@H]2O)[C@@H](CCN(Cc2cn(-c3cnc4ccccc4c3)nn2)c2ccccc2)C[C@@H](C)C(=O)/C=C/C(C)=C/[C@@H]1CI | 2 (≈ 2.01 µM) | 32 (≈ 32.2 µM) |  | 
2 | CCCN(C)C[C@H]1/C=C(C)/C=C/C(=O)[C@H](C)C[C@H](CCN(Cc2cn(-c3cnc4ccccc4c3)nn2)c2ccccc2)[C@H](O[C@@H]2O[C@H](C)[C@@H](O)[C@H](N(C)C)[C@H]2O)[C@@H](C)[C@H](O)CC(=O)O[C@@H]1CC | 0.5 (≈ 0.533 µM) | 4 (≈ 4.26 µM) |  | 
3 | CC[C@H]1OC(=O)C[C@@H](O)[C@H](C)[C@@H](O[C@@H]2O[C@H](C)[C@@H](O)[C@H](N(C)C)[C@H]2O)[C@@H](CCNCc2cn(-c3cnc4ccccc4c3)nn2)C[C@@H](C)C(=O)/C=C/C(C)=C/[C@@H]1CN(C)CC | 0.5 (≈ 0.59 µM) | 4 (≈ 4.72 µM) |  | 
4 | CC[C@H]1OC(=O)C[C@@H](O)[C@H](C)[C@@H](O[C@@H]2O[C@H](C)[C@@H](O)[C@H](N(C)C)[C@H]2O)[C@@H](CCN(C)Cc2cn(-c3cnc4ccccc4c3)nn2)C[C@@H](C)C(=O)/C=C/C(C)=C/[C@@H]1CNCc1ccccc1 | 1 (≈ 1.1 µM) | 2 (≈ 2.2 µM) | 4 (≈ 4.39 µM) | 2 (≈ 2.2 µM)
5 | CC[C@H]1OC(=O)C[C@@H](O)[C@H](C)[C@@H](O[C@@H]2O[C@H](C)[C@@H](O)[C@H](N(C)C)[C@H]2O)[C@@H](CCN(C)Cc2cn(-c3cnc4ccccc4c3)nn2)C[C@@H](C)C(=O)/C=C/C(C)=C/[C@@H]1CNCc1cccc(Br)c1 | 4 (≈ 4.04 µM) | 8 (≈ 8.09 µM) | 8 (≈ 8.09 µM) | 8 (≈ 8.09 µM)
6 | CC[C@H]1OC(=O)C[C@@H](O)[C@H](C)[C@@H](O[C@@H]2O[C@H](C)[C@@H](O)[C@H](N(C)C)[C@H]2O)[C@@H](CCN(Cc2cn(-c3cnc4ccccc4c3)nn2)c2ccccc2)C[C@@H](C)C(=O)/C=C/C(C)=C/[C@@H]1CN(C)CC | 0.5 (≈ 0.541 µM) | 2 (≈ 2.16 µM) |  | 
7 | CC[C@H]1OC(=O)C[C@@H](O)[C@H](C)[C@@H](O[C@@H]2O[C@H](C)[C@@H](O)[C@H](N(C)C)[C@H]2O)[C@@H](CCN(C)Cc2cn(-c3cnc4ccccc4c3)nn2)C[C@@H](C)C(=O)/C=C/C(C)=C/[C@@H]1CNCc1ccc(Br)cc1 | 4 (≈ 4.04 µM) | 8 (≈ 8.09 µM) | 8 (≈ 8.09 µM) | 8 (≈ 8.09 µM)
8 | CC[C@H]1OC(=O)C[C@@H](O)[C@H](C)[C@@H](O[C@@H]2O[C@H](C)[C@@H](O)[C@H](N(C)C)[C@H]2O)[C@@H](CCN(C)Cc2cn(-c3cnc4ccccc4c3)nn2)C[C@@H](C)C(=O)/C=C/C(C)=C/[C@@H]1CN1CCCc2ccccc21 | 2 (≈ 2.14 µM) | 2 (≈ 2.14 µM) | 2 (≈ 2.14 µM) | 4 (≈ 4.27 µM)
9 | CC[C@H]1OC(=O)C[C@@H](O)[C@H](C)[C@@H](O[C@@H]2O[C@H](C)[C@@H](O)[C@H](N(C)C)[C@H]2O)[C@@H](CCNCc2cn(-c3cnc4ccccc4c3)nn2)C[C@@H](C)C(=O)/C=C/C(C)=C/[C@@H]1CI | 2 (≈ 2.18 µM) | 8 (≈ 8.73 µM) |  | 
10 | CC[C@H]1OC(=O)C[C@@H](O)[C@H](C)[C@@H](O[C@@H]2O[C@H](C)[C@@H](O)[C@H](N(C)C)[C@H]2O)[C@@H](CCNCc2cn(-c3cnc4ccccc4c3)nn2)C[C@@H](C)C(=O)/C=C/C(C)=C/[C@@H]1CN1CCCCCC1 | 0.5 (≈ 0.563 µM) | 1 (≈ 1.13 µM) |  | 
11 | CC[C@H]1OC(=O)C[C@@H](O)[C@H](C)[C@@H](O[C@@H]2O[C@H](C)[C@@H](O)[C@H](N(C)C)[C@H]2O)[C@@H](CCNCc2cn(-c3cnc4ccccc4c3)nn2)C[C@@H](C)C(=O)/C=C/C(C)=C/[C@@H]1CN(C)C(C)C | 0.5 (≈ 0.58 µM) | 2 (≈ 2.32 µM) |  | 
12 | CCCNC[C@H]1/C=C(C)/C=C/C(=O)[C@H](C)C[C@H](CCN(C)Cc2cn(-c3cnc4ccccc4c3)nn2)[C@H](O[C@@H]2O[C@H](C)[C@@H](O)[C@H](N(C)C)[C@H]2O)[C@@H](C)[C@H](O)CC(=O)O[C@@H]1CC | 2 (≈ 2.32 µM) | 8 (≈ 9.28 µM) |  | 
13 | CCCNC[C@H]1/C=C(C)/C=C/C(=O)[C@H](C)C[C@H](CCN(Cc2cn(-c3cnc4ccccc4c3)nn2)c2ccccc2)[C@H](O[C@@H]2O[C@H](C)[C@@H](O)[C@H](N(C)C)[C@H]2O)[C@@H](C)[C@H](O)CC(=O)O[C@@H]1CC | 2 (≈ 2.16 µM) | 8 (≈ 8.66 µM) |  | 
14 | CC[C@H]1OC(=O)C[C@@H](O)[C@H](C)[C@@H](O[C@@H]2O[C@H](C)[C@@H](O)[C@H](N(C)C)[C@H]2O)[C@@H](CCNCc2cn(-c3cnc4ccccc4c3)nn2)C[C@@H](C)C(=O)/C=C/C(C)=C/[C@@H]1CN(CC)CC | 0.5 (≈ 0.58 µM) | 2 (≈ 2.32 µM) |  | 
15 | CC[C@H]1OC(=O)C[C@@H](O)[C@H](C)[C@@H](O[C@@H]2O[C@H](C)[C@@H](O)[C@H](N(C)C)[C@H]2O)[C@@H](CCNCc2cn(-c3cnc4ccccc4c3)nn2)C[C@@H](C)C(=O)/C=C/C(C)=C/[C@@H]1CO | 0.25 (≈ 0.31 µM) | 4 (≈ 4.96 µM) |  | 
16 | CCCNC[C@H]1/C=C(C)/C=C/C(=O)[C@H](C)C[C@H](CCNCc2cn(-c3cnc4ccccc4c3)nn2)[C@H](O[C@@H]2O[C@H](C)[C@@H](O)[C@H](N(C)C)[C@H]2O)[C@@H](C)[C@H](O)CC(=O)O[C@@H]1CC | 1 (≈ 1.18 µM) | 8 (≈ 9.43 µM) |  | 
17 | CC[C@H]1OC(=O)C[C@@H](O)[C@H](C)[C@@H](O[C@@H]2O[C@H](C)[C@@H](O)[C@H](N(C)C)[C@H]2O)[C@@H](CCNCc2cn(-c3cnc4ccccc4c3)nn2)C[C@@H](C)C(=O)/C=C/C(C)=C/[C@@H]1CN(C)C | 0.5 (≈ 0.599 µM) | 2 (≈ 2.4 µM) |  | 
18 | CC[C@H]1OC(=O)C[C@@H](O)[C@H](C)[C@@H](O[C@@H]2O[C@H](C)[C@@H](O)[C@H](N(C)C)[C@H]2O)[C@@H](CCNCc2cn(-c3cnc4ccccc4c3)nn2)C[C@@H](C)C(=O)/C=C/C(C)=C/[C@@H]1CN(C)C1CCCCC1 | 1 (≈ 1.11 µM) | 2 (≈ 2.22 µM) |  | 
19 | CCCCN(CCCC)C[C@H]1/C=C(C)/C=C/C(=O)[C@H](C)C[C@H](CCNCc2cn(-c3cnc4ccccc4c3)nn2)[C@H](O[C@@H]2O[C@H](C)[C@@H](O)[C@H](N(C)C)[C@H]2O)[C@@H](C)[C@H](O)CC(=O)O[C@@H]1CC | 2 (≈ 2.18 µM) | 8 (≈ 8.71 µM) |  | 
20 | CC[C@H]1OC(=O)C[C@@H](O)[C@H](C)[C@@H](O[C@@H]2O[C@H](C)[C@@H](O)[C@H](N(C)C)[C@H]2O)[C@@H](CCN(C)Cc2cn(-c3cnc4ccccc4c3)nn2)C[C@@H](C)C(=O)/C=C/C(C)=C/[C@@H]1CI | 2 (≈ 2.15 µM) | 16 (≈ 17.2 µM) |  | 
21 | CCCCN(CCCC)C[C@H]1/C=C(C)/C=C/C(=O)[C@H](C)C[C@H](CCN(Cc2cn(-c3cnc4ccccc4c3)nn2)c2ccccc2)[C@H](O[C@@H]2O[C@H](C)[C@@H](O)[C@H](N(C)C)[C@H]2O)[C@@H](C)[C@H](O)CC(=O)O[C@@H]1CC | 1 (≈ 1.01 µM) | 32 (≈ 32.2 µM) |  | 

More lines, in order of falling MIC (Staphylococcus aureus), values ahead:

Row | MIC (Staphylococcus aureus) [µg/mL] | MIC (Escherichia coli) [µg/mL] | MIC (Enterococcus faecalis) [µg/mL] | MIC [1] [µg/mL] | SMILES
22 | 4 (≈ 4.11 µM) | 8 (≈ 8.23 µM) |  |  | CC[C@H]1OC(=O)C[C@@H](O)[C@H](C)[C@@H](O[C@@H]2O[C@H](C)[C@@H](O)[C@H](N(C)C)[C@H]2O)[C@@H](CCN(Cc2cn(-c3cnc4ccccc4c3)nn2)c2ccccc2)C[C@@H](C)C(=O)/C=C/C(C)=C/[C@@H]1CNCc1ccccc1
23 | 1 (≈ 1.08 µM) | 2 (≈ 2.16 µM) | 4 (≈ 4.33 µM) | 2 (≈ 2.16 µM) | CC[C@H]1OC(=O)C[C@@H](O)[C@H](C)[C@@H](O[C@@H]2O[C@H](C)[C@@H](O)[C@H](N(C)C)[C@H]2O)[C@@H](CCN(C)Cc2cn(-c3cnc4ccccc4c3)nn2)C[C@@H](C)C(=O)/C=C/C(C)=C/[C@@H]1CNCc1ccc(C)cc1
24 | 1 (≈ 1.15 µM) | > 32 | 1 (≈ 1.15 µM) | > 32 | CC[C@H]1OC(=O)C[C@@H](O)[C@H](C)[C@@H](O[C@@H]2O[C@H](C)[C@@H](O)[C@H](N(C)C)[C@H]2O)[C@@H](CCN2C[C@H](C)C[C@H](C)C2)C[C@@H](C)C(=O)/C=C/C(C)=C/[C@@H]1CO[C@@H]1O[C@H](C)[C@@H](O)[C@@H](OC)[C@H]1OC [TILMICOSIN]
25 | 1 (≈ 1.09 µM) | 4 (≈ 4.37 µM) |  |  | CC[C@H]1OC(=O)C[C@@H](O)[C@H](C)[C@@H](O[C@@H]2O[C@H](C)[C@@H](O)[C@H](N(C)C)[C@H]2O)[C@@H](CCN(C)Cc2cn(-c3cnc4ccccc4c3)nn2)C[C@@H](C)C(=O)/C=C/C(C)=C/[C@@H]1CN(C)C1CCCCC1
26 | 1 (≈ 1.22 µM) | 4 (≈ 4.87 µM) |  |  | CC[C@H]1OC(=O)C[C@@H](O)[C@H](C)[C@@H](O[C@@H]2O[C@H](C)[C@@H](O)[C@H](N(C)C)[C@H]2O)[C@@H](CCN(C)Cc2cn(-c3cnc4ccccc4c3)nn2)C[C@@H](C)C(=O)/C=C/C(C)=C/[C@@H]1CO
27 | 0.5 (≈ 0.58 µM) | 4 (≈ 4.64 µM) |  |  | CCCN(C)C[C@H]1/C=C(C)/C=C/C(=O)[C@H](C)C[C@H](CCNCc2cn(-c3cnc4ccccc4c3)nn2)[C@H](O[C@@H]2O[C@H](C)[C@@H](O)[C@H](N(C)C)[C@H]2O)[C@@H](C)[C@H](O)CC(=O)O[C@@H]1CC
28 | 0.5 (≈ 0.572 µM) | 2 (≈ 2.29 µM) |  |  | CC[C@H]1OC(=O)C[C@@H](O)[C@H](C)[C@@H](O[C@@H]2O[C@H](C)[C@@H](O)[C@H](N(C)C)[C@H]2O)[C@@H](CCNCc2cn(-c3cnc4ccccc4c3)nn2)C[C@@H](C)C(=O)/C=C/C(C)=C/[C@@H]1CN1CCCCC1
29 | 0.5 (≈ 0.533 µM) | 8 (≈ 8.53 µM) |  |  | CC[C@H]1OC(=O)C[C@@H](O)[C@H](C)[C@@H](O[C@@H]2O[C@H](C)[C@@H](O)[C@H](N(C)C)[C@H]2O)[C@@H](CCN(Cc2cn(-c3cnc4ccccc4c3)nn2)c2ccccc2)C[C@@H](C)C(=O)/C=C/C(C)=C/[C@@H]1CN(C)C(C)C
30 | 0.5 (≈ 0.554 µM) | 2 (≈ 2.22 µM) |  |  | CC[C@H]1OC(=O)C[C@@H](O)[C@H](C)[C@@H](O[C@@H]2O[C@H](C)[C@@H](O)[C@H](N(C)C)[C@H]2O)[C@@H](CCNCc2cn(-c3cnc4ccccc4c3)nn2)C[C@@H](C)C(=O)/C=C/C(C)=C/[C@@H]1CN1CCCCCCC1
31 | 0.5 (≈ 0.511 µM) | 4 (≈ 4.09 µM) |  |  | CC[C@H]1OC(=O)C[C@@H](O)[C@H](C)[C@@H](O[C@@H]2O[C@H](C)[C@@H](O)[C@H](N(C)C)[C@H]2O)[C@@H](CCN(Cc2cn(-c3cnc4ccccc4c3)nn2)c2ccccc2)C[C@@H](C)C(=O)/C=C/C(C)=C/[C@@H]1CN(C)C1CCCCC1
